Measured values reported in ChEMBL document CHEMBL1287749, “Acetazolamide-based fungal chitinase inhibitors” (Bioorg Med Chem, 2010).
The source made the active and inactive calls. The calls are words filed in the database; no cut-off is given here.

Target: T1, Endochitinase A1 (Aspergillus fumigatus) (UniProt Q873Y0)
T1 sequence (whole entry): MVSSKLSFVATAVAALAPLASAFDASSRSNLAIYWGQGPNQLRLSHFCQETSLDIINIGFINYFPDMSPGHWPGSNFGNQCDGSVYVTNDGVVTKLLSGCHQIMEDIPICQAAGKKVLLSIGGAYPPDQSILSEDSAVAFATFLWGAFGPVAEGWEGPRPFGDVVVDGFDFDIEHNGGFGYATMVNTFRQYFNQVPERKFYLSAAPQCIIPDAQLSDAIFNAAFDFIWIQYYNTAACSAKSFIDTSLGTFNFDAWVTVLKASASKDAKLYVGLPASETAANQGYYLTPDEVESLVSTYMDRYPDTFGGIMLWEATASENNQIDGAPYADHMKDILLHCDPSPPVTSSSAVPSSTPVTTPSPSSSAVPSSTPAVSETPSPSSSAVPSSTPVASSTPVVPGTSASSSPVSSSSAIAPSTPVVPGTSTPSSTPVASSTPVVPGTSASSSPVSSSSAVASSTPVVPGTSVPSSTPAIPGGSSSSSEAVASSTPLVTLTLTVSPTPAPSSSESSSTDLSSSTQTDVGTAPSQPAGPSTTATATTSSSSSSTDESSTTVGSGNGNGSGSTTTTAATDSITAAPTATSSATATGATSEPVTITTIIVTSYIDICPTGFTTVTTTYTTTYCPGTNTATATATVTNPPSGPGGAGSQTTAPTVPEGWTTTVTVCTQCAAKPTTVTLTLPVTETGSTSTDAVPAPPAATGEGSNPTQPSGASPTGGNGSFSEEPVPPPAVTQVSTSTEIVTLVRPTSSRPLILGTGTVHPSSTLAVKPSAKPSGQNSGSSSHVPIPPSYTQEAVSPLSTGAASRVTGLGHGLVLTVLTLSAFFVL
Conditions: 1 mM

SMILES: Nc1nnc(S(N)(=O)=O)s1
- inhibition: inactive
